One may read the logP as the decadic logarithm of the partition coefficient of the neutral form, usually between octanol and water. A higher logP goes with higher lipophilicity.

This is an account of results in ChEMBL document CHEMBL5338814, “Discovery of Small-Molecule Degraders for Alpha-Synuclein Aggregates” (J Med Chem, 2023).

Activity calls are given as the source filed them. The rule behind the calls is not given here.

For data set [1], the system named is SH-SY5Y. Description: Neuroprotective activity against alpha-synuclein aggregate-induced cell death in human SH-SY5Y cells over-expressing alpha-synuclein preformed fibrils assessed as decrease in cell death at 10 uM by CCK8 assay. It is filed as functional, cell-based.
Data set [2] has as its system Caenorhabditis elegans. Description: In vivo PROTAC activity at CRBN/Alpha-synuclein overexpressed in Caenorhabditis elegans NL5901 co-expressing YFP fusion protein assessed as induction of alpha-synuclein aggregate degradation incubated for 48 hrs by immunoblot analysis. The settings on record: dose 20-80 µM. It is filed as functional, organism-based.
Data set [3] concerns SH-SY5Y. Description: Neuroprotective activity against alpha-synuclein aggregate-induced cell injury in human SH-SY5Y cells over-expressing alpha-synuclein preformed fibrils assessed as decrease in LDH release at 10 uM by LDH assay. It is filed as functional, cell-based.
In data set [4] the test system is HEK-293T. The data set can be described thus: Activation of autophagy-lysosome pathway in HEK293T cells seeded with recombinant alpha-synuclein preformed fibrils harboring adenovirus-mCherry-GFP-LC3B assessed as increase in LC3B punctae density at 10 uM treated for 6 hrs by DAPI staining based confocal laser scanning microscopic analysis. The data set is classed as functional, cell-based. The settings on record: Homo sapiens.

For data set [5], the system named is HEK-293T. The data set can be described thus: Activation of autophagy-lysosome pathway in HEK293T cells seeded with recombinant alpha-synuclein preformed fibrils assessed as increase in LAMP1 expression at 10 uM incubated for 6 hrs by immunoblot analysis. The data set is classed as functional, cell-based. The settings on record: Homo sapiens.
In data set [6] the test system is HEK-293T. The data set can be described thus: Downregulation of alpha-synuclein in HEK293T cells seeded with recombinant alpha-synuclein preformed fibrils at 10 uM incubated for 24 hrs by label free quantification based proteomics analysis. The data set is classed as functional, cell-based. The settings on record: Homo sapiens.
Data set [7] in a line: 1-Octanol-water partition coefficient, logP of the compound incubated for 24 hrs by HPLC analysis. It is filed as physicochemical.
The subject of data set [8] is Caenorhabditis elegans. Description: In vivo PROTAC activity at CRBN/Alpha-synuclein overexpressed in Caenorhabditis elegans NL5901 co-expressing YFP fusion protein assessed as reduction in alpha-synuclein-YFP level at 20 to 80 uM incubated for 48 hrs by confocal laser scanning microscopic analysis. It is filed as functional, organism-based. The settings on record: dose 20-80 µM.

Data set [9] relates to HEK-293T. Description: Effect on alpha-synuclein total level in HEK293T cells seeded with recombinant alpha-synuclein preformed fibrils upto 40 uM measured after 48 hrs by immunoblot analysis. The data set is classed as functional, cell-based. The settings on record: Homo sapiens.
Data set [10] concerns Caenorhabditis elegans. Description: In vivo PROTAC activity at CRBN/Alpha-synuclein overexpressed in Caenorhabditis elegans NL5901 co-expressing YFP fusion protein assessed as induction of alpha-synuclein aggregate degradation incubated for 48 hrs by dot blot analysis. The data set is classed as functional, organism-based. The settings on record: dose 20-80 µM.
In data set [11] the test system is HEK-293T. Description: Activation of autophagy-lysosome pathway in HEK293T cells seeded with recombinant alpha-synuclein preformed fibrils assessed as decrease in p62 level at 10 uM incubated for 6 hrs by immunoblot analysis. It is filed as functional, cell-based. The settings on record: Homo sapiens. (In general: A western blot detects proteins with antibodies after separation by electrophoresis.)

Data set [12] relates to HEK-293T. Description: Effect on alpha-synuclein total level in HEK293T cells upto 40 uM measured after 48 hrs by immunoblot analysis. It is filed as functional, cell-based. The settings on record: Homo sapiens.
A short description of data set [13]: Drug uptake in HEK293T cell membrane at 10 uM measured at 5 to 360 min by confocal laser scanning microscopic analysis. The data set is classed as ADME, cell membranes. The settings on record: human, hek-293t, time 5-360 min.
For data set [14], the system named is HEK-293T. The data set can be described thus: Activation of autophagy-lysosome pathway in HEK293T cells seeded with recombinant alpha-synuclein preformed fibrils harboring adenovirus-mCherry-GFP-LC3B assessed as increase in LC3B punctae number at 10 uM treated for 6 hrs by DAPI staining based confocal laser scanning microscopic analysis. It is filed as functional, cell-based. The settings on record: Homo sapiens.

Data set [15] has as its system Caenorhabditis elegans. Description: In vivo PROTAC activity at CRBN/Alpha-synuclein overexpressed in Caenorhabditis elegans NL5901 co-expressing YFP fusion protein assessed as reduction in alpha-synuclein-YFP MFI at 20 to 80 uM incubated for 48 hrs by confocal laser scanning microscopic analysis. The data set is classed as functional, organism-based. The settings on record: dose 20-80 µM.

Data set [16] has as its system HEK-293T. Description: Activation of autophagy-lysosome pathway in HEK293T cells seeded with recombinant alpha-synuclein preformed fibrils harboring adenovirus-mCherry-GFP-LC3B assessed as increase in GFP(-) punctae ratio at 10 uM treated for 6 hrs by DAPI staining based confocal laser scanning microscopic analysis. It is filed as functional, cell-based. The settings on record: Homo sapiens.

The subject of data set [17] is HEK-293T. Description: Activation of autophagy-lysosome pathway in HEK293T cells seeded with recombinant alpha-synuclein preformed fibrils assessed as increase in lysosome generation at 10 uM incubated for 6 hrs by LyTR staining based confocal laser scanning microscopic analysis. The data set is classed as functional, cell-based. The settings on record: Homo sapiens.

The subject of data set [18] is HEK-293T. The data set can be described thus: Activation of autophagy-lysosome pathway in HEK293T cells seeded with recombinant alpha-synuclein preformed fibrils assessed as increase in LC3B-II/I ratio at 10 uM incubated for 6 hrs by immunoblot analysis. The data set is classed as functional, cell-based. The settings on record: Homo sapiens.
Data set [19] deals with T1, Protein cereblon/Alpha-synuclein (Homo sapiens) (UniProt P37840+Q96SW2). Description: PROTAC activity at CRBN/recombinant alpha-synuclein preformed fibrils seeded in HEK293T cells assessed as decrease in alpha-synuclein aggregates upto 40 uM measured after 48 hrs by immunoblot analysis. It is filed as cell-based.
In data set [20] the target is T1, Protein cereblon/Alpha-synuclein (Homo sapiens). The data set can be described thus: PROTAC activity at CRBN/recombinant alpha-synuclein preformed fibrils seeded in HEK293T cells assessed as decrease in alpha-synuclein aggregates at 5 to 20 uM measured after 48 hrs by immunoblot analysis. It is filed as cell-based. The settings on record: dose 5-20 µM.
Data set [21] concerns the target Baculoviral IAP repeat-containing protein 2/Alpha-synuclein (Homo sapiens) (UniProt Q13490+P37840). The data set can be described thus: PROTAC activity at cIAP1/recombinant alpha-synuclein preformed fibrils seeded in HEK293T cells assessed as decrease in alpha-synuclein aggregates upto 40 uM measured after 48 hrs by immunoblot analysis. It is filed as cell-based.

Data set [22] deals with von Hippel-Lindau disease tumor suppressor/Alpha-synuclein (Homo sapiens) (UniProt P37840+P40337). Description: PROTAC activity at VHL/recombinant alpha-synuclein preformed fibrils seeded in HEK293T cells assessed as decrease in alpha-synuclein aggregates upto 40 uM measured after 48 hrs by immunoblot analysis. It is filed as cell-based.

Turning to `O=C(CNc1cccc(-c2cc(-c3ccc4c(c3)OCO4)n[nH]2)c1)NCCOCCOCCOCCNc1cccc2c1C(=O)N(C1CCC(=O)NC1=O)C2=O` (stereo not given), the outcome with SH-SY5Y [1], with SH-SY5Y [3], in the data set with HEK-293T [4], in the data set with HEK-293T [5], with HEK-293T [6] and in the data set with Caenorhabditis elegans [8] was Active. The result in the data set on HEK-293T [11], in the data set with HEK-293T [14], in the data set with Caenorhabditis elegans [15], in the data set on HEK-293T [16], with HEK-293T [17] and in the data set on HEK-293T [18] was Active. Also, the Activity entry in the data set with Caenorhabditis elegans [2] and in the data set on Caenorhabditis elegans [10] was “Dose-Dependent Effect” each time. Further, the logP at 24 h in data set [7] was determined as 2.04. Further, the result in the data set on HEK-293T [9] and in the data set with HEK-293T [12] was inactive. In addition, the Drug uptake result in data set [13] was “Active”.

Consider `O=C(CNc1cccc(-c2cc(-c3ccc4c(c3)OCO4)n[nH]2)c1)NCCOCCOCCNc1cccc2c1C(=O)N(C1CCC(=O)NC1=O)C2=O` (stereo not given), for which the result in data set [19] was Active.

On to `Nc1cccc(-c2cc(-c3ccc4c(c3)OCO4)n[nH]2)c1`, for which, in [20], the result was inactive.

As for `CN1C(=O)CCC(N2C(=O)c3cccc(NCCOCCOCCOCCNC(=O)CNc4cccc(-c5cc(-c6ccc7c(c6)OCO7)n[nH]5)c4)c3C2=O)C1=O` (stereo not given), the outcome in data set [20] was inactive.

`CC(C)C[C@H](NC(=O)[C@@H](O)[C@H](N)Cc1ccccc1)C(=O)NCCOCCOCCOCCNc1cccc(-c2cc(-c3ccc4c(c3)OCO4)n[nH]2)c1`: in data set [21], the outcome was Active.

`Cc1ncsc1-c1ccc([C@H](C)NC(=O)[C@@H]2C[C@@H](O)CN2C(=O)[C@@H](NC(=O)CCOCCOCCOCCNc2cccc(-c3cc(-c4ccc5c(c4)OCO5)n[nH]3)c2)C(C)(C)C)cc1`: the result in data set [22] was Active.

For `CC(C)C[C@H](NC(=O)[C@@H](O)[C@H](N)Cc1ccccc1)C(=O)NCCOCCOCCNc1cccc(-c2cc(-c3ccc4c(c3)OCO4)n[nH]2)c1`, the result in data set [21] was Active.

Take `Cc1ncsc1-c1ccc([C@H](C)NC(=O)[C@@H]2C[C@@H](O)CN2C(=O)[C@@H](NC(=O)CCOCCOCCNc2cccc(-c3cc(-c4ccc5c(c4)OCO5)n[nH]3)c2)C(C)(C)C)cc1`: the outcome in data set [22] was Active.
